From US9296723B2, “NAMPT inhibitors” (AbbVie Inc., priority 2012, dated 2016)

How the values were obtained:
PC3 cells = assay: NAMPT Cell Proliferation Assay (Cell Titer Glo); format: cell-based; conditions: Homo sapiens, PC-3, 120 h, incubated 5 days, cell viability
Procedure, shortened: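 Viability measured by Cell Titer Glo luminescence after 5-day exposure of attached PC3 cells to compound, dosed as 10-fold serial dilutions ([…]) in RPMI/10% FBS at 37 °C and 5% CO2. Percent inhibition fitted to sigmoidal dose-response curves for IC50.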

NAMPT [1] = target: T1, NAMPT (Homo sapiens, UniProt P43490); assay: Time-Resolved Fluorescence Resonance Energy Transfer (TR-FRET) Binding Assay of NAMPT; conditions: 6.8 nM NAMPT, 200 nM probe, equilibrated 3 hours, no substrates
Procedure, shortened: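 IC50s come from four-parameter logistic fits of control-normalized Em520/Em495 TR-FRET ratios (Ex 337 nm) against compound concentration. Before reading, enzyme, probe, antibody and compound equilibrated for 3 h at room temperature.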

NAMPT [2] = target: T1, NAMPT; assay: TR-FRET Binding Assay of NAMPT with PRPP; conditions: 2 nM NAMPT, 2 nM probe, 200 µM PRPP and 2.5 mM ATP, equilibrated 16 hours
Procedure, shortened: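 Substrates present: PRPP at 200 µM and ATP at 2.5 mM, final, alongside 2 nM enzyme, 2 nM tracer and 1 nM terbium anti-His donor in 2% DMSO. A 16-hour equilibration preceded the time-resolved FRET read, allowing compounds to be enzymatically modified.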

T1 sequence (P43490 whole entry): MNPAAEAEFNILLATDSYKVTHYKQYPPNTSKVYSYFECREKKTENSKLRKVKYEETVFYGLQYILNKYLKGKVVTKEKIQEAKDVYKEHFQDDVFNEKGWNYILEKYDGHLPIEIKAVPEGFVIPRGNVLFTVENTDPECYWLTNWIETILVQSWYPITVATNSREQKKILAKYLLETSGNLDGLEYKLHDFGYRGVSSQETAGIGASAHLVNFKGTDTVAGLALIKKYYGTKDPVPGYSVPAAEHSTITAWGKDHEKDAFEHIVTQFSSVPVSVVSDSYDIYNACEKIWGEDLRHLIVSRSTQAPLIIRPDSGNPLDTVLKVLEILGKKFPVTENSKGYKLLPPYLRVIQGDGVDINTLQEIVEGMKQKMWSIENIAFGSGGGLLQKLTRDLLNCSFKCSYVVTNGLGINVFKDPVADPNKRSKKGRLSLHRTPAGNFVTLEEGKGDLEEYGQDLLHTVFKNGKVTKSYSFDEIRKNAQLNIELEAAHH

SMILES | IC50 (PC3 cells) | IC50 (NAMPT [1]) | IC50 (NAMPT [2])
CCOCC(=O)N1CCC(c2ccc(NC(=O)N3CC(c4cccnc4)C3)cc2)CC1 [Example 173, N-{4-[1-(ethoxyacetyl)piperidin-4-yl]phenyl}-3-(pyridin-3-yl)azetidine-1-carboxamide] | 56.4 nM | 90.4 nM | 0.393 nM
CC(C)CC(=O)N1CCC(c2ccc(NC(=O)N3CC(c4cccnc4)C3)cc2)CC1 [Example 174, N-{4-[1-(3-methylbutanoyl)piperidin-4-yl]phenyl}-3-(pyridin-3-yl)azetidine-1-carboxamide] | 24.4 nM | 20.8 nM | 0.325 nM
COCCOCC(=O)N1CCC(c2ccc(NC(=O)N3CC(c4cccnc4)C3)cc2)CC1 [Example 176, N-(4-{1-[(2-methoxyethoxy)acetyl]piperidin-4-yl}phenyl)-3-(pyridin-3-yl)azetidine-1-carboxamide] | 88.9 nM | 65.5 nM | 0.35 nM
O=C(Nc1ccc(C2CCN(C(=O)C3CCCCC3)CC2)cc1)N1CC(c2cccnc2)C1 [Example 177, N-{4-[1-(cyclohexylcarbonyl)piperidin-4-yl]phenyl}-3-(pyridin-3-yl)azetidine-1-carboxamide] | 74 nM | 15.8 nM | 0.304 nM
O=C(Nc1ccc(C2CCN(C(=O)C3CCCC3)CC2)cc1)N1CC(c2cccnc2)C1 [Example 180, N-{4-[1-(cyclopentylcarbonyl)piperidin-4-yl]phenyl}-3-(pyridin-3-yl)azetidine-1-carboxamide] | 67.7 nM | 21.3 nM | 0.284 nM
O=C(Nc1ccc(C2CCN(C(=O)c3ccoc3)CC2)cc1)N1CC(c2cccnc2)C1 [Example 182, N-{4-[1-(furan-3-ylcarbonyl)piperidin-4-yl]phenyl}-3-(pyridin-3-yl)azetidine-1-carboxamide] | 6.95 nM | 3.68 nM | 0.219 nM
CC(=O)N1CCC(c2ccc(NC(=O)N3CC(c4cccnc4)C3)cc2)CC1 [Example 183, N-[4-(1-acetylpiperidin-4-yl)phenyl]-3-(pyridin-3-yl)azetidine-1-carboxamide] | 63.3 nM | 22 nM | 0.38 nM
COCC(=O)N1CCC(c2ccc(NC(=O)N3CC(c4cccnc4)C3)cc2)CC1 [Example 184, N-{4-[1-(methoxyacetyl)piperidin-4-yl]phenyl}-3-(pyridin-3-yl)azetidine-1-carboxamide] | 61.2 nM | 18.5 nM | 0.305 nM
O=C(Nc1ccc(C2CCN(C(=O)c3ccsc3)CC2)cc1)N1CC(c2cccnc2)C1 [Example 185, 3-(pyridin-3-yl)-N-{4-[1-(thiophen-3-ylcarbonyl)piperidin-4-yl]phenyl}azetidine-1-carboxamide] | 9.18 nM | 3.23 nM | 0.228 nM
O=C(Nc1ccc(C2CCN(C(=O)c3cccs3)CC2)cc1)N1CC(c2cccnc2)C1 [Example 188, 3-(pyridin-3-yl)-N-{4-[1-(thiophen-2-ylcarbonyl)piperidin-4-yl]phenyl}azetidine-1-carboxamide] | 2.25 nM | 2.1 nM | 0.188 nM
O=C(Nc1ccc(C2CCN(C(=O)c3ccco3)CC2)cc1)N1CC(c2cccnc2)C1 [Example 190, N-{4-[1-(furan-2-ylcarbonyl)piperidin-4-yl]phenyl}-3-(pyridin-3-yl)azetidine-1-carboxamide] | 5.83 nM | 2 nM | 0.282 nM
Cn1cccc1C(=O)N1CCC(c2ccc(NC(=O)N3CC(c4cccnc4)C3)cc2)CC1 [Example 191, N-(4-{1-[(1-methyl-1H-pyrrol-2-yl)carbonyl]piperidin-4-yl}phenyl)-3-(pyridin-3-yl)azetidine-1-carboxamide] | 7.46 nM | 4.27 nM | 0.291 nM
CC1(C(=O)N2CCC(c3ccc(NC(=O)N4CC(c5cccnc5)C4)cc3)CC2)CC1 [Example 193, N-(4-{1-[(1-methylcyclopropyl)carbonyl]piperidin-4-yl}phenyl)-3-(pyridin-3-yl)azetidine-1-carboxamide] | 13.7 nM | 14.4 nM | 0.243 nM

More lines, in order of falling IC50 (PC3 cells), values ahead:

IC50 (PC3 cells) | IC50 (NAMPT [1]) | IC50 (NAMPT [2]) | SMILES
86.3 nM | 39.3 nM | 0.292 nM | O=C(CN1CCOCC1)N1CCC(c2ccc(NC(=O)N3CC(c4cccnc4)C3)cc2)CC1 [Example 187, N-{4-[1-(morpholin-4-ylacetyl)piperidin-4-yl]phenyl}-3-(pyridin-3-yl)azetidine-1-carboxamide]
76.9 nM | 32.5 nM | 0.249 nM | O=C(CCC(F)(F)F)N1CCC(c2ccc(NC(=O)N3CC(c4cccnc4)C3)cc2)CC1 [Example 179, 3-(pyridin-3-yl)-N-{4-[1-(4,4,4-trifluorobutanoyl)piperidin-4-yl]phenyl}azetidine-1-carboxamide]
75 nM | 13.9 nM | 0.42 nM | O=C(CC1CCCCC1)N1CCC(c2ccc(NC(=O)N3CC(c4cccnc4)C3)cc2)CC1 [Example 178, N-{4-[1-(cyclohexylacetyl)piperidin-4-yl]phenyl}-3-(pyridin-3-yl)azetidine-1-carboxamide]
67.5 nM | 30.7 nM | 0.403 nM | CC(=O)N[C@@H](CC(C)C)C(=O)N1CCC(c2ccc(NC(=O)N3CC(c4cccnc4)C3)cc2)CC1 [Example 175, N-{4-[1-(N-acetyl-L-leucyl)piperidin-4-yl]phenyl}-3-(pyridin-3-yl)azetidine-1-carboxamide]
63.2 nM | 23 nM | 0.255 nM | CCC(=O)N1CCC(c2ccc(NC(=O)N3CC(c4cccnc4)C3)cc2)CC1 [Example 192, N-[4-(1-propanoylpiperidin-4-yl)phenyl]-3-(pyridin-3-yl)azetidine-1-carboxamide]
34.5 nM | 5.65 nM | 0.206 nM | CCCC(=O)N1CCC(c2ccc(NC(=O)N3CC(c4cccnc4)C3)cc2)CC1 [Example 172, N-[4-(1-butanoylpiperidin-4-yl)phenyl]-3-(pyridin-3-yl)azetidine-1-carboxamide]
24.3 nM | 8.06 nM | 0.256 nM | CC1(C(=O)N2CCC(c3ccc(NC(=O)N4CC(c5cccnc5)C4)cc3)CC2)CCCCC1 [Example 181, N-(4-{1-[(1-methylcyclohexyl)carbonyl]piperidin-4-yl}phenyl)-3-(pyridin-3-yl)azetidine-1-carboxamide]
22 nM | 8.74 nM | 0.231 nM | CC(C)(C)C(=O)N1CCC(c2ccc(NC(=O)N3CC(c4cccnc4)C3)cc2)CC1 [Example 171, N-{4-[1-(2,2-dimethylpropanoyl)piperidin-4-yl]phenyl}-3-(pyridin-3-yl)azetidine-1-carboxamide]
21.7 nM | 22.6 nM | 0.21 nM | Cc1ccc(C(=O)N2CCC(c3ccc(NC(=O)N4CC(c5cccnc5)C4)cc3)CC2)s1 [Example 189, N-(4-{1-[(5-methylthiophen-2-yl)carbonyl]piperidin-4-yl}phenyl)-3-(pyridin-3-yl)azetidine-1-carboxamide]
3.45 nM | 2.93 nM | 0.345 nM | Cc1ccsc1C(=O)N1CCC(c2ccc(NC(=O)N3CC(c4cccnc4)C3)cc2)CC1 [Example 186, N-(4-{1-[(3-methylthiophen-2-yl)carbonyl]piperidin-4-yl}phenyl)-3-(pyridin-3-yl)azetidine-1-carboxamide]
